Assay results: ChEMBL document CHEMBL3872232, “2-Azetidinones: Synthesis and biological evaluation as potential anti-breast cancer agents” (Eur J Med Chem, 2016)

Assays:
[1] = Safety index, ratio of compound IC50 to colchicine IC50 for human mammary epithelial cells; type: ADME, cell-based, Epithelial cell; conditions: read-out: Ratio IC50
[2] = test system: MDA-MB-231; test: Effect on p21 mRNA expression in human MDA-MB-231 cells assessed as ratio of p21 to GAPDH expression level at 5 uM after 24 hrs by RT-PCR method (reference value: 0.02); type: functional
[3] = Cell cycle arrest in human MCF7 cells assessed as accumulation at G0/G1 phase at 5 uM after 24 hrs by propidium iodide staining based flow cytometry (reference value: 83.25%); type: functional
[4] = test system: MDA-MB-231; test: Effect on cyclin D1 mRNA expression in human MDA-MB-231 cells assessed as ratio of cyclin D1 to GAPDH expression level at 5 uM after 24 hrs by RT-PCR method (reference value: 0.71); type: functional
[5] = species on record: Homo sapiens; test: Inhibition of Akt in human MDA-MB-231 cells assessed as ratio of phosphorylated Akt to GAPDH expression level at 2 uM after 48 hrs by immunoblot analysis (reference value: 0.33 to 0.81); type: cell-based
[6] = test system: MCF7; test: Induction of apoptosis in human MCF7 cells assessed as necrotic cells at 5 uM after 24 hrs by Annexin V-FITC/propidium iodide staining based flow cytometry (reference value: 3.7%); type: functional
[7] = test system: MDA-MB-231; test: Ratio of Bcl-2 to Bax gene expression in human MDA-MB-231 cells at 5 uM after 24 hrs by RT-PCR method (reference value: 0.03); type: functional
[8] = test system: MDA-MB-231; test: Effect on Cdk6 mRNA expression in human MDA-MB-231 cells assessed as ratio of Cdk6 to GAPDH expression level at 5 uM after 24 hrs by RT-PCR method (reference value: 1.37); type: functional
[9] = test system: MDA-MB-231; test: Inhibition of Akt in human MDA-MB-231 cells after 48 hrs by ELISA; type: cell-based
[10] = species on record: Homo sapiens; test: Inhibition of Akt in human MDA-MB-231 cells assessed as ratio of phosphorylated GSK-3beta to GAPDH expression level at 2 uM after 48 hrs by immunoblot analysis (reference value: 0.14 to 1.50); type: cell-based
[11] = Cell cycle arrest in human MCF7 cells assessed as accumulation at S phase at 5 uM after 24 hrs by propidium iodide staining based flow cytometry (reference value: 4.23%); type: functional
[12] = test system: MDA-MB-231; test: Effect on cyclin E mRNA expression in human MDA-MB-231 cells assessed as ratio of cyclin E to GAPDH expression level at 5 uM after 24 hrs by RT-PCR method (reference value: 0.13); type: functional
[13] = test system: MDA-MB-231; test: Inhibition of Akt in human MDA-MB-231 cells assessed as reduction in GSK-3beta phosphorylation after 48 hrs by immunoblot analysis; type: cell-based
[14] = test system: MDA-MB-231; test: Effect on p27 mRNA expression in human MDA-MB-231 cells assessed as ratio of p27 to GAPDH expression level at 5 uM after 24 hrs by RT-PCR method (reference value: 0.23); type: functional
[15] = species on record: Homo sapiens; test: Inhibition of Akt in human MDA-MB-231 cells assessed as ratio of phosphorylated Akt to GAPDH expression level at 5 uM after 48 hrs by immunoblot analysis (reference value: 0.33 to 0.81); type: cell-based
[16] = Antiproliferative activity against human MDA-MB-231 cells after 48 hrs by MTT assay; type: functional, cell-based; conditions: MDA-MB-231, 48 h
[17] = test system: MDA-MB-231; test: Induction of apoptosis in human MDA-MB-231 cells assessed as late apoptotic cells at 5 uM after 24 hrs by Annexin V-FITC/propidium iodide staining based flow cytometry (reference value: 1.8%); type: functional
[18] = Antiproliferative activity against human MCF7 cells after 48 hrs by MTT assay; type: functional, cell-based; conditions: MCF7, 48 h
[19] = test system: MCF7; test: Induction of apoptosis in human MCF7 cells assessed as late apoptotic cells at 5 uM after 24 hrs by Annexin V-FITC/propidium iodide staining based flow cytometry (reference value: 2.3%); type: functional
[20] = test system: MDA-MB-231; test: Effect on p53 gene expression in human MDA-MB-231 cells assessed as ratio of p53 to beta-actin expression level at 5 uM after 24 hrs by RT-PCR method (reference value: 0.22); type: functional
[21] = species on record: Homo sapiens; test: Inhibition of Akt in human MDA-MB-231 cells assessed as ratio of phosphorylated GSK-3beta to GAPDH expression level at 10 uM after 48 hrs by immunoblot analysis (reference value: 0.14 to 1.50); type: cell-based
[22] = test system: MDA-MB-231; test: Induction of apoptosis in human MDA-MB-231 cells assessed as necrotic cells at 5 uM after 24 hrs by Annexin V-FITC/propidium iodide staining based flow cytometry (reference value: 1.3%); type: functional
[23] = test system: MDA-MB-231; test: Effect on Cdk2 mRNA expression in human MDA-MB-231 cells assessed as ratio of Cdk2 to GAPDH expression level at 5 uM after 24 hrs by RT-PCR method (reference value: 0.26); type: functional
[24] = Cell cycle arrest in human MCF7 cells assessed as accumulation at G2/M phase at 5 uM after 24 hrs by propidium iodide staining based flow cytometry (reference value: 9.29%); type: functional
[25] = species on record: Homo sapiens; test: Inhibition of Akt in human MDA-MB-231 cells assessed as ratio of phosphorylated Akt to GAPDH expression level at 10 uM after 48 hrs by immunoblot analysis (reference value: 0.33 to 0.81); type: cell-based
[26] = test system: MDA-MB-231; test: Effect on Bid gene expression in human MDA-MB-231 cells assessed as ratio of Bid to beta-actin expression level at 5 uM after 24 hrs by RT-PCR method (reference value: 0.17); type: functional
[27] = Antiproliferative activity against human mammary epithelial cells after 48 hrs by MTT assay; type: cell-based, Epithelial cell
[28] = test system: MDA-MB-231; test: Induction of apoptosis in human MDA-MB-231 cells assessed as early apoptotic cells at 5 uM after 24 hrs by Annexin V-FITC/propidium iodide staining based flow cytometry (reference value: 0.5%); type: functional
[29] = Cell cycle arrest in human MCF7 cells assessed as accumulation at sub-G1 phase at 5 uM after 24 hrs by propidium iodide staining based flow cytometry (reference value: 3.58%); type: functional
[30] = test system: MCF7; test: Induction of apoptosis in human MCF7 cells assessed as early apoptotic cells at 5 uM after 24 hrs by Annexin V-FITC/propidium iodide staining based flow cytometry (reference value: 1.6%); type: functional
[31] = species on record: Homo sapiens; test: Inhibition of Akt in human MDA-MB-231 cells assessed as ratio of phosphorylated GSK-3beta to GAPDH expression level at 5 uM after 48 hrs by immunoblot analysis (reference value: 0.14 to 1.50); type: cell-based
[32] = species on record: Homo sapiens; test: Inhibition of Akt in human MDA-MB-231 cells assessed as ratio of phosphorylated GSK-3beta to GAPDH expression level at 100 nM after 48 hrs by immunoblot analysis (reference value: 0.14 to 1.50); type: cell-based
[33] = species on record: Homo sapiens; test: Inhibition of Akt in human MDA-MB-231 cells assessed as ratio of phosphorylated Akt to GAPDH expression level at 100 nM after 48 hrs by immunoblot analysis (reference value: 0.33 to 0.81); type: cell-based
[34] = Homo sapiens, Epithelial cell, 48 h, read-out: IC50

## CO[C@@H]1C(=O)N(C/C(C#N)=C/c2ccccc2)[C@@H]1c1ccc(F)cc1
[1]
  selectivity ratio: 10
[2]
  Ratio: 0.09
[3]
  Activity: 83.2%
[4]
  Ratio: 1.59
[5]
  Ratio: 0.42
[6]
  Activity: 6.9%
[7]
  Ratio: 0.03
[8]
  Ratio: 1.3
[9]
  inhibition: Dose-dependent effect
[10]
  Ratio: 0.42
[11]
  Activity: 5.15%
[12]
  Ratio: 0.2
[13]
  inhibition: Dose-dependent effect
[14]
  Ratio: 0.33
[15]
  Ratio: 0.45
[16]
  IC50: 9.24 µM
[17]
  Activity: 4.7%
[18]
  IC50: 8.31 µM
[19]
  Activity: 2.3%
[20]
  Ratio: 0.21
[21]
  Ratio: 0.2
[22]
  Activity: 1.6%
[23]
  Ratio: 0.32
[24]
  Activity: 9.68%
[25]
  Ratio: 0.58
[26]
  Ratio: 0.39
[27]; epithelial cell
  IC50: Non-Toxic
[28]
  Activity: 1.1%
[29]
  Activity: 2.83%
[30]
  Activity: 1.7%
[31]
  Ratio: 0.22

## CO[C@@H]1C(=O)N(C/C(C#N)=C/c2ccccc2)[C@@H]1c1ccc(Cl)cc1
[16]
  IC50: 18 µM
[18]
  IC50: 19.8 µM
[27]; epithelial cell
  IC50: Non-Toxic

## COC[C@H]1OC(=O)c2coc3c2[C@@]1(C)C1=C(C3=O)[C@@H]2CCC(=O)[C@@]2(C)C[C@H]1OC(C)=O
[32]
  Ratio: 0.61
[33]
  Ratio: 0.01

## CO[C@@H]1C(=O)N(C/C(C#N)=C/c2ccccc2)[C@@H]1c1ccccc1Br
[16]
  IC50: 10.7 µM
[18]
  IC50: 10.8 µM
[27]; epithelial cell
  IC50: Non-Toxic

## COC(=O)/C(=C/c1ccccc1)CN1C(=O)[C@@H](OC)[C@H]1c1ccccc1
[16]
  IC50: 11.1 µM
[18]
  IC50: 12.9 µM
[27]; epithelial cell
  IC50: Non-Toxic

## CCOC(=O)/C(=C/c1ccccc1)CN1C(=O)[C@@H](OC)[C@H]1c1ccc(Cl)cc1
[16]
  IC50: 11.1 µM
[18]
  IC50: 12.7 µM
[27]; epithelial cell
  IC50: Non-Toxic

## COC(=O)/C(=C/c1ccccc1)CN1C(=O)[C@@H](OC)[C@H]1c1cccc(C(F)(F)F)c1
[16]
  IC50: 18.2 µM
[27]; [34]
  IC50: 71.8 µM

## CO[C@@H]1C(=O)N(C/C(C#N)=C/c2ccccc2)[C@@H]1c1ccc(Cl)cc1Cl
[16]
  IC50: 17 µM
[18]
  IC50: 31.9 µM
[27]; [34]
  IC50: > 100 µM

## COC(=O)/C(=C/c1ccccc1)CN1C(=O)[C@@H](OC)[C@H]1c1ccccc1C(F)(F)F
[16]
  IC50: 17.6 µM
[27]; epithelial cell
  IC50: Non-Toxic

## COC(=O)/C(=C/c1ccccc1)CN1C(=O)[C@@H](OC)[C@H]1c1cccc(F)c1
[16]
  IC50: 34.4 µM
[18]
  IC50: 13.7 µM
[27]; [34]
  IC50: 38.5 µM

## CO[C@@H]1C(=O)N(C/C(C#N)=C/c2ccccc2)[C@@H]1c1cccc2ccccc12
[18]
  IC50: 11.7 µM
[27]; epithelial cell
  IC50: Non-Toxic

## COC(=O)/C(=C/c1ccccc1)CN1C(=O)[C@@H](OC)[C@H]1c1ccc(F)cc1
[16]
  IC50: 21.8 µM
[18]
  IC50: 15.6 µM
[27]; [34]
  IC50: 27.9 µM
